Reference: patent publication US12516080B2, “Remdesivir and remdesivir analogs, solutions, and nanoparticle, liposomal, and microparticle compositions for treating viral infections” (priority 2020, dated 2026)
Like-named read-outs stand apart in the source and are kept apart here.

Experiments:
[1] = In-vitro plasma stability, mouse plasma; assay type: in vitro ADME; conditions: compared with remdesivir
Description: (§1) For nucleoside triphosphate analysis, LC-MS/MS was performed by ion-pairing chromatography using LC 20AD UFLC (Shimadzu, Japan) couple with an API 5500 (AB Sciex, USA). The separation was achieved on a 50×2.1 mm Agilent 3.5 μm C18 column. The mobile phase consisted of 3 mM ammonium formate with 10 mM dimethylhexylamine in water (mobile phase A), and 0.1% formic Acid in ACN (mobile phase B). A multi-stage linear gradient initiated with 2% B for 1 min, increased to 95% B in 2 min and maintained with 95% B for 1 min at a flow rate of 0.4 mL/min. Detection was performed on negative ion mode and multiple reaction monitoring modes.
(§2) Remdesivir, analogs and their metabolites alanine metabolite and Nuc were analyzed on an X500R QTOF System (AB Sciex, USA). Chromatographic separation was obtained on a 50×2.1 mm Agilent 3.5 μm C18 column using constant flow rate of 0.6 mL/min. The gradient mobile phase consisted of 0.1% formic acid in water (mobile phase A) and 0.1% formic acid acetonitrile (mobile phase B), running from 5% B to 95% B within 3 min and then maintaining 95% B for 1 min. The eluent was introduced into quadrupole time-of-flight mass spectrometry by electrospray ionization (ESI) operated in positive modes.
(§3) All the analytes were quantified using 10-point standard curves ranging from 5 to 5000 ng/mL.
(§4) To test the in-vitro plasma stability, 5 ul of […] test compound (remdesivir, MMT4-70, MMT4-98, MMT5-1) was added to 495 ul human, hamster, and mouse plasma, respectively. The structures of MMT4-70, MMT4-98, MMT5-1 are shown below. Aliquot of 40 μL was pipetted from the reaction solution and stopped by the addition of 160 μL cold acetonitrile at different sampling time (0, 10 min, 30 min, 60 min and 120 min). The incubation solution was centrifuged at 3500 rpm for 10 minutes to precipitate protein. The supernatant was used for LC/MS/MS analysis.

[2] = In-vitro plasma stability, statements over human, hamster, and mouse plasma; assay type: in vitro ADME; conditions: different plasmas
Description: as §1, §2, §3, §4

COVID-19 virus = assay: In vitro anti-COVID-19 virus activity of remdesivir (literature); assay type: cell-based, SARS-CoV-2; conditions: assuming intracellular Nuc-TP accumulates more than 10-fold to extracellular remdesivir
[3] = Short-time PK test and initial tissue targeting (plasma, blood, lung); assay type: in vivo; conditions: hamsters, i.v. 10 mg/Kg
Description: as §1, §2, §3
Short-time PK test was used to compare different compounds. Five remdesivir analogs (MMT4-70, MMT4-98, MMT5-1, MMT5-14, and MMT5-15) were compared to remdesivir. The structures of MMT5-14 and MMT5-15 are shown below. Albumin nanocomplexes of the remdesivir analogs were made according to the following procedure: organic phase was prepared by dissolving the synthesized compounds (20 mg) into chloroform (1 ml). 20 ml of marketed HSA solution (5%) was then mixed with organic phase and dispersed vigorously by a rotor-stator homogenizer (Ultra-Turrax T25, 8K rpm-12K rpm, 5 min) to generate a milk-like emulsion. The emulsion was then processed by a high-pressure homogenizer (Nano DeBEE) with the parameters set as pressure=15,000 psi-20,000 psi, condensation temp=5° C., cycles=6. Remaining organic solvent in the product was removed by a rotatory evaporator. The final nano-suspension was filtered with 0.22 μm membrane and freeze dried (primary drying temp=−5° C. for 30 h and secondary drying temp=30° C. for 6 h). The vials were filled with nitrogen before sealing and stored at −20° C.
The formulations and remdesivir (marketed formulation) were i.v. administered to catheterized hamsters with dose of 10 mg/Kg. Each group had two hamsters. At different time points (0.25 hr, 1 hr, 2 hr and 4 hr), plasma was collected for future LC-MS analysis. At 4 hr time point, the hamsters were euthanized and blood and lung were collected for future LC-MS analysis.

[4] = Tissue targeting of formulations (concentration-time profiles and AUC in tissues); assay type: in vivo; conditions: hamsters, i.v. 10 mg/Kg; for parent compound concentration through all tissues: 0.5-24 hr, short time points
Description: as §1, §2, §3
Besides nano formulation, a cyclodextrin-based formulation was also prepared for MMT5-14. Briefly, 2% cremophor and 2% ethanol was added to dissolve the MMT5-14, followed by mixing with 20% SBE-CD. Two formulated MMT5-14 compounds together with remdesivir (marketed formulation) were i.v. administered to catheterized hamsters with dose as 10 mg/Kg. Each group has two hamsters. At different time points (0.5 hr, 1 hr, 4 hr, 7 hr and 24 hr), the hamsters were euthanized and samples including plasma, blood, blood vessel, heart, intestine, kidney, lung, lymph node, spleen, trachea, and others were collected for future LC-MS analysis.

[5] = In-vitro plasma stability, human plasma; assay type: in vitro ADME
Description: as §1, §2
All the analytes were quantified using 10-point standard curves ranging from 5 to 5000 ng/mL. […]

B24 cells = conditions: cited from earlier work
AMJ2-C11 cells = assay: Cellular uptake of formulations, AMJ2-C11 cells; assay type: cell-based; conditions: 10 μM
human cells = conditions: in vitro metabolism; cited from earlier work
[6] = system: PBMC, monocytes, Hela, microphage, and HUVEC; conditions: multiple human and rhesus monkey cells; cited from earlier work
THP-1 cells = assay: Cellular uptake of formulations, THP-1 cells; assay type: cell-based; conditions: 10 μM
[7] = marmosets, cited from earlier work
Calu-3 cells = assay: Cellular uptake of formulations, Calu-3 cells; assay type: cell-based; conditions: 10 μM
[8] = cited from earlier work
[9] = mice, cited from earlier work

## CCCCCCCCCCCCOC(=O)[C@H](C)NP(=O)(OC[C@H]1O[C@@H](c2ccc3c(N)ncnn23)[C@H](O)[C@@H]1O)Oc1ccccc1 (stereo partly drawn) [MMT4-70]
[1]
  stability taking account of ALA generation: similar/better stability
[2]
  overall stability compared with remdesivir: more stable than remdesivir

## CCCCCCCCCCCCOC(=O)[C@H](C)NP(=O)(OC[C@H]1O[C@@H](c2ccc3c(N)ncnn23)[C@H](O)[C@@H]1O)Oc1cccc2ccccc12 (stereo partly drawn) [MMT4-98]
[1]
  stability taking account of ALA generation: similar/better stability
[2]
  overall stability compared with remdesivir: more stable than remdesivir

## N#C[C@@]1(c2ccc3c(N)ncnn23)O[C@H](COP(=O)(O)OP(=O)(O)OP(=O)(O)O)[C@@H](O)[C@H]1O [Nuc-TP]
COVID-19 virus; read-out: EC50 of intracellular Nuc-TP against COVID-19 virus
  EC50: > 7.7 µM
COVID-19 virus; read-out: EC90 of intracellular Nuc-TP against COVID-19 virus
  EC90: > 17.6 µM

## CCCCCC/C=C\C/C=C\CCCCCCCCOC(=O)[C@H](C)NP(=O)(OC[C@H]1O[C@@H](c2ccc3c(N)ncnn23)[C@H](O)[C@@H]1O)Oc1ccccc1 (stereo partly drawn) [MMT5-14]
[3]
  stability and concentration in blood and lung tissue (reason for selection): balanced stability and high concentration in blood and lung tissue
[4]
  ALA metabolite concentration in tissues compared with remdesivir: higher
  parent compound concentration through all tissues: much higher
[4]; all analyzed tissues
  AUC of ALA compared with remdesivir: higher AUCs
  AUC of the parent compound compared with remdesivir: higher AUCs
[4]; blood vessel, kidney, and trachea
  parent compound, MMT5-14 versus Nano-MMT5-14 groups: higher
[4]; blood, lung, and spleen
  active metabolite NTP accumulation: behaved better
[4]; most tissues
  parent compound, MMT5-14 versus Nano-MMT5-14 groups, most tissues: No significance

## C[C@H](NP(=O)(OC[C@H]1O[C@@H](c2ccc3c(N)ncnn23)[C@H](O)[C@@H]1O)Oc1cccc2ccccc12)C(=O)OCc1ccccc1 (stereo partly drawn) [MMT5-1]
[1]
  stability taking account of ALA generation: similar/better stability
[5]
  stability ranking in human plasma: behaved best
[2]
  overall stability compared with remdesivir: more stable than remdesivir

## CCC(CC)COC(=O)[C@H](C)N[P@](=O)(OC[C@H]1O[C@@](C#N)(c2ccc3c(N)ncnn23)[C@H](O)[C@@H]1O)Oc1ccccc1 [remdesivir, Remdesivir]
B24 cells
  intracellular Nuc-TP accumulation relative to extracellular remdesivir: more than 3 fold
AMJ2-C11 cells
  alanine metabolite concentration in cells: higher concentrations
  generation of NTP in cells: higher generation
Human cells
  other metabolites share: 45%
  remdesivir converted into Nuc-TP: approximately 55%
[6]
  intracellular Nuc-TP versus extracellular concentration of remdesivir: 25-100 folds
THP-1 cells
  alanine metabolite concentration in cells: higher concentrations
[7]; i.v. bolus 10 mg/kg remdesivir
  concentration of Nuc-TP in the lung: 800 to 1500 nM
[7]; i.v. bolus 10 mg/kg
  remdesivir in the lungs: not detectable
Calu-3 cells
  alanine metabolite concentration in cells: higher concentrations
  generation of NTP in cells: higher generation
[3]; 0.25-4 hr
  stability in plasma (plasma concentration change): quickly metabolized
[3]; short time points
  ALA concentration in plasma: High concentration
  NUC concentration in plasma: High concentration
[8]; blood cells such as PBMC
  Nuc-TP concentration in PBMC: 30-40 PM
[8]; monkey, 10 mg/kg remdesivir
  concentration of Nuc-TP in the lung: 800 to 1500 nM
[8]; monkey, 10 mg/kg
  concentration of remdesivir in the lung: did not achieve measurable concentration
[8]; monkey, i.v. 10 mg/kg remdesivir, for 12-24 hrs
  plasma nucleoside monophosphate (Nuc-MP) concentration: 0.5 to 1 µM
[8]; monkey, i.v. 10 mg/kg, 30 min
  remdesivir plasma concentration in 30 min: below 0.5 μM
[8]; monkey, i.v. 10 mg/kg, initial
  remdesivir plasma concentration: several micromolar
[4]
  parent compound concentration through all tissues: quickly metabolized
[4]; blood vessel, heart, and lymph node
  active metabolite NTP accumulation: better accumulation
[4]; several tissues like heart and trachea
  NUC concentration in tissues: high concentration
[9]; 25-50 mg/kg remdesivir
  concentration of Nuc-TP in the lung: ~3000 nM
[9]; 25-50 mg/kg
  concentration of remdesivir in the lung: did not achieve measurable concentration
